In the supplement of paper PMC10307832:

Assays:
Test in all cases: relative viability (nuclei count vs DMSO), 5 days (fraction); higher = more cells survive
EMC-BAC-2 = tested on: EMC-BAC-2
Outline: (§1)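 Nuclei were stained with Hoechst during a one-step fixation (final 0.05% Triton X-100, 1% formaldehyde, 1 ug/ml Hoechst) carried out 5 days after dosing, then counted on 4× images. The cells, lung cancer lines in 1536-well plates, had been dosed by pin tool the day after seeding with one drug alone or a fixed anchor-drug dose plus five library-drug doses (not always all listed) in √10 steps. Relative viability is the nuclei count in treated wells divided by that in vehicle wells, and each value is the median of duplicate plates.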

EPLC-272H = tested on: EPLC-272H
Outline: as §1

H3255 = tested on: H3255
Outline: as §1

HCC-44 = tested on: HCC-44
Outline: as §1

HCC-827 = tested on: HCC-827
Outline: as §1

LCLC-97TM1 = tested on: LCLC-97TM1
Outline: as §1

NCI-H1355 = tested on: NCI-H1355
Outline: as §1

NCI-H1395 = tested on: NCI-H1395
Outline: as §1

NCI-H1563 = tested on: NCI-H1563
Outline: as §1

NCI-H1651 = tested on: NCI-H1651
Outline: as §1

NCI-H1793 = tested on: NCI-H1793
Outline: as §1

NCI-H1944 = tested on: NCI-H1944
Outline: as §1

NCI-H2023 = tested on: NCI-H2023
Outline: as §1

NCI-H2085 = tested on: NCI-H2085
Outline: as §1

NCI-H2087 = tested on: NCI-H2087
Outline: as §1

NCI-H2405 = tested on: NCI-H2405
Outline: as §1

NCI-H322M = tested on: NCI-H322M
Outline: as §1

NCI-H520 = tested on: NCI-H520
Outline: as §1

NCI-H650 = tested on: NCI-H650
Outline: as §1

SK-MES-1 = tested on: SK-MES-1
Outline: as §1

UMC-11 = tested on: UMC-11
Outline: as §1

Oc1nc(-c2ccc(C(F)(F)F)cc2)nc2c1CSCC2 [XAV939] + CS(=O)(=O)CCNCc1ccc(-c2ccc3ncnc(Nc4ccc(OCc5cccc(F)c5)c(Cl)c4)c3c2)o1 [Lapatinib] (partner 2 µM)
relative viability (EMC-BAC-2; first compound 0.08 µM): 1.01 | relative viability (EMC-BAC-2; first compound 0.253 µM): 0.821 | relative viability (EMC-BAC-2; first compound 0.8 µM): 0.837 | relative viability (EMC-BAC-2; first compound 2.53 µM): 0.681 | relative viability (EPLC-272H; first compound 0.08 µM): 1.06 | relative viability (EPLC-272H; first compound 0.253 µM): 0.893 | relative viability (EPLC-272H; first compound 0.8 µM): 1 | relative viability (EPLC-272H; first compound 2.53 µM): 0.864 | relative viability (H3255; first compound 0.08 µM): 0.19 | relative viability (H3255; first compound 0.253 µM): 0.238 | relative viability (H3255; first compound 0.8 µM): 0.233 | relative viability (H3255; first compound 2.53 µM): 0.186 | relative viability (HCC-44; first compound 0.08 µM): 1.01 | relative viability (HCC-44; first compound 0.253 µM): 0.816 | relative viability (HCC-44; first compound 0.8 µM): 0.955 | relative viability (HCC-44; first compound 2.53 µM): 0.928 | relative viability (HCC-827; first compound 0.08 µM): 0.194 | relative viability (HCC-827; first compound 0.253 µM): 0.178 | relative viability (HCC-827; first compound 0.8 µM): 0.238 | relative viability (HCC-827; first compound 2.53 µM): 0.187 | relative viability (LCLC-97TM1; first compound 0.08 µM): 1.11 | relative viability (LCLC-97TM1; first compound 0.253 µM): 0.959 | relative viability (LCLC-97TM1; first compound 0.8 µM): 0.668 | relative viability (LCLC-97TM1; first compound 2.53 µM): 0.81 | relative viability (NCI-H1355; first compound 0.08 µM): 1.02 | relative viability (NCI-H1355; first compound 0.253 µM): 0.857 | relative viability (NCI-H1355; first compound 0.8 µM): 0.875 | relative viability (NCI-H1355; first compound 2.53 µM): 0.729 | relative viability (NCI-H1395; first compound 0.08 µM): 0.976 | relative viability (NCI-H1395; first compound 0.253 µM): 0.919 | relative viability (NCI-H1395; first compound 0.8 µM): 0.985 | relative viability (NCI-H1395; first compound 2.53 µM): 1.01 | relative viability (NCI-H1563; first compound 0.08 µM): 1.15 | relative viability (NCI-H1563; first compound 0.253 µM): 0.852 | relative viability (NCI-H1563; first compound 0.8 µM): 0.809 | relative viability (NCI-H1563; first compound 2.53 µM): 0.773 | relative viability (NCI-H1651; first compound 0.08 µM): 0.822 | relative viability (NCI-H1651; first compound 0.253 µM): 0.758 | relative viability (NCI-H1651; first compound 0.8 µM): 0.904 | relative viability (NCI-H1651; first compound 2.53 µM): 0.857 | relative viability (NCI-H1793; first compound 0.08 µM): 0.892 | relative viability (NCI-H1793; first compound 0.253 µM): 0.602 | relative viability (NCI-H1793; first compound 0.8 µM): 0.714 | relative viability (NCI-H1793; first compound 2.53 µM): 0.877 | relative viability (NCI-H1944; first compound 0.08 µM): 1.16 | relative viability (NCI-H1944; first compound 0.253 µM): 0.865 | relative viability (NCI-H1944; first compound 0.8 µM): 0.834 | relative viability (NCI-H1944; first compound 2.53 µM): 0.679 | relative viability (NCI-H2023; first compound 0.08 µM): 0.737 | relative viability (NCI-H2023; first compound 0.253 µM): 0.723 | relative viability (NCI-H2023; first compound 0.8 µM): 0.674 | relative viability (NCI-H2023; first compound 2.53 µM): 0.622 | relative viability (NCI-H2085; first compound 0.08 µM): 0.692 | relative viability (NCI-H2085; first compound 0.253 µM): 0.699 | relative viability (NCI-H2085; first compound 0.8 µM): 0.743 | relative viability (NCI-H2085; first compound 2.53 µM): 0.649 | relative viability (NCI-H2087; first compound 0.08 µM): 1.12 | relative viability (NCI-H2087; first compound 0.253 µM): 1.06 | relative viability (NCI-H2087; first compound 0.8 µM): 1.08 | relative viability (NCI-H2087; first compound 2.53 µM): 0.89 | relative viability (NCI-H2405; first compound 0.08 µM): 1.25 | relative viability (NCI-H2405; first compound 0.253 µM): 1.02 | relative viability (NCI-H2405; first compound 0.8 µM): 0.972 | relative viability (NCI-H2405; first compound 2.53 µM): 1.1 | relative viability (NCI-H322M; first compound 0.08 µM): 0.602 | relative viability (NCI-H322M; first compound 0.253 µM): 0.57 | relative viability (NCI-H322M; first compound 0.8 µM): 0.599 | relative viability (NCI-H322M; first compound 2.53 µM): 0.426 | relative viability (NCI-H520; first compound 0.08 µM): 0.83 | relative viability (NCI-H520; first compound 0.253 µM): 0.78 | relative viability (NCI-H520; first compound 0.8 µM): 0.792 | relative viability (NCI-H520; first compound 2.53 µM): 0.682 | relative viability (NCI-H650; first compound 0.08 µM): 0.868 | relative viability (NCI-H650; first compound 0.253 µM): 0.957 | relative viability (NCI-H650; first compound 0.8 µM): 1 | relative viability (NCI-H650; first compound 2.53 µM): 0.893 | relative viability (SK-MES-1; first compound 0.08 µM): 0.499 | relative viability (SK-MES-1; first compound 0.253 µM): 0.389 | relative viability (SK-MES-1; first compound 0.8 µM): 0.424 | relative viability (SK-MES-1; first compound 2.53 µM): 0.406 | relative viability (UMC-11; first compound 0.08 µM): 1.15 | relative viability (UMC-11; first compound 0.253 µM): 0.742 | relative viability (UMC-11; first compound 0.8 µM): 0.97 | relative viability (UMC-11; first compound 2.53 µM): 0.921
